Measured values reported in ChEMBL document CHEMBL6087465, “Design, Synthesis, and Antitumor Activity Evaluation of 2-Phenylthiazole-5-Carboxylic Acid Derivatives Targeting Transactivation Response RNA-Binding Protein 2” (J Med Chem, 2025).
Calls of active or inactive are those of the source. No cut-off for these calls is given here.

Legend:
[1] = tested on: SK-HEP1; assay: Antiproliferative activity against human SK-HEP1 cells cultured as 2D cells assessed as inhibition of cell growth at 10 uM incubated for 72 hrs by CCK-8 assay; assay type: functional, cell-based
[2] = tested on: HCCLM3; assay: Antiproliferative activity against human HCCLM3 cells cultured as 2D cells assessed as inhibition of cell growth at 10 uM incubated for 72 hrs by CCK-8 assay; assay type: functional, cell-based
[3] = tested on: SK-HEP1; assay: Antiproliferative activity against human SK-HEP1 cells cultured as 3D cells assessed as inhibition of cell growth at 10 uM incubated for 72 hrs by CellTiter-Lumi assay; assay type: functional, cell-based
[4] = tested on: HCCLM3; assay: Antiproliferative activity against human HCCLM3 cells cultured as 3D cells assessed as inhibition of cell growth at 10 uM incubated for 72 hrs by CellTiter-Lumi assay; assay type: functional, cell-based
[5] = tested on: HCCLM3; assay: Antiproliferative activity against human HCCLM3 cells cultured as 3D cells assessed as inhibition of colony formation at 25 uM incubated for 21 days by 3D soft-agar based microscopic analysis; assay type: functional, cell-based; conditions: time 21.0 day
[6] = tested on: SK-HEP1; assay: Inhibition of cell migration in human SK-HEP1 cells at 10 uM incubated for 24 hrs by wound healing assay; assay type: functional, cell-based
[7] = tested on: HCCLM3; assay: Inhibition of cell migration in human HCCLM3 cells at 10 uM incubated for 24 hrs by wound healing assay; assay type: functional, cell-based
[8] = tested on: SK-HEP1; assay: Inhibition of cell migration in human SK-HEP1 cells at 10 uM incubated for 24 hrs by transwell assay; assay type: functional, cell-based
[9] = tested on: HCCLM3; assay: Inhibition of cell migration in human HCCLM3 cells at 10 uM incubated for 24 hrs by transwell assay; assay type: functional, cell-based
[10] = species: Homo sapiens; assay: Inhibition of recombinant human TRBP/recombinant human Dicer protein protein interaction at 25 uM by indirect-competition-ELISA
[11] = tested on: SK-HEP1; assay: Antiproliferative activity against TARBP2-knockout human SK-HEP1 cells cultured as 3D cells assessed as inhibition of cell growth at 25 uM incubated for 72 hrs by CellTiter-Lumi assay; assay type: functional, cell-based
[12] = tested on: HCCLM3; assay: Antiproliferative activity against TARBP2-knockout human HCCLM3 cells cultured as 3D cells assessed as inhibition of cell growth at 25 uM incubated for 72 hrs by CellTiter-Lumi assay; assay type: functional, cell-based
[13] = tested on: SK-HEP1; assay: Antiproliferative activity against human SK-HEP1 cells cultured as 3D cells assessed as inhibition of cell growth at 25 uM incubated for 72 hrs by CellTiter-Lumi assay; assay type: functional, cell-based
[14] = tested on: HCCLM3; assay: Antiproliferative activity against human HCCLM3 cells cultured as 3D cells assessed as inhibition of cell growth at 25 uM incubated for 72 hrs by CellTiter-Lumi assay; assay type: functional, cell-based
[15] = tested on: SK-HEP1; assay: Inhibition of cell migration in human SK-HEP1 cells incubated for 24 hrs by transwell assay; assay type: functional, cell-based
[16] = tested on: HCCLM3; assay: Inhibition of cell migration in human HCCLM3 cells incubated for 24 hrs by transwell assay; assay type: functional, cell-based
[17] = tested on: SK-HEP1; assay: Inhibition of cell migration in TARBP2-knockout human SK-HEP1 cells at 1 to 25 uM incubated for 24 hrs by transwell assay; assay type: functional, cell-based; conditions: dose 1-25 µM
[18] = tested on: HCCLM3; assay: Inhibition of cell migration in TARBP2-knockout human HCCLM3 cells at 1 to 25 uM incubated for 24 hrs by transwell assay; assay type: functional, cell-based; conditions: dose 1-25 µM
[19] = Inhibition of PI3K/AKT/mTOR signaling pathway in human HCCLM3 cells assessed as downregulation of AKT phosphorylation incubated for 24 hrs by Western blotting analysis; assay type: cell-based
[20] = Inhibition of PI3K/AKT/mTOR signaling pathway in human HCCLM3 cells assessed as downregulation of mTOR phosphorylation incubated for 24 hrs by Western blotting analysis; assay type: cell-based
[21] = tested on: HCCLM3; assay: Antiproliferative activity against human HCCLM3 cells assessed as upregulation of SMAD7 expression at 10 uM by Western blotting analysis; assay type: functional, cell-based
[22] = tested on: HCCLM3; assay: Antiproliferative activity against human HCCLM3 cells assessed as downregulation of SMAD2 phosphorylation at 10 uM by Western blotting analysis; assay type: functional, cell-based
[23] = tested on: HCCLM3; assay: Antiproliferative activity against human HCCLM3 cells assessed as downregulation of SMAD3 phosphorylation at 10 uM by Western blotting analysis; assay type: functional, cell-based
[24] = tested on: HCCLM3; assay: Antiproliferative activity against human HCCLM3 cells assessed as upregulation of SMAD7 expression incubated for 24 hrs by Western blotting analysis; assay type: functional, cell-based
[25] = tested on: HCCLM3; assay: Antiproliferative activity against human HCCLM3 cells assessed as downregulation of SMAD2 phosphorylation incubated for 24 hrs by Western blotting analysis; assay type: functional, cell-based
[26] = tested on: HCCLM3; assay: Antiproliferative activity against human HCCLM3 cells assessed as downregulation of SMAD3 phosphorylation incubated for 24 hrs by Western blotting analysis; assay type: functional, cell-based
[27] = Acute toxicity in Kunming mouse assessed as animal death at 100 mg/kg,ip administration measured after 14 days; assay type: organism-based; conditions: in vivo, 336 h, time 14 day
[28] = Acute toxicity in Kunming mouse assessed as body weight loss at 100 mg/kg,ip administration measured after 14 days; assay type: organism-based; conditions: in vivo, 336 h, time 14 day
[29] = Acute toxicity in Kunming mouse assessed as effect on AST level in liver at 100 mg/kg,ip administration measured after 14 days; assay type: organism-based; conditions: in vivo, 336 h, time 14 day
[30] = Acute toxicity in Kunming mouse assessed as effect on ALT level in liver at 100 mg/kg,ip administration measured after 14 days; assay type: organism-based; conditions: in vivo, 336 h, time 14 day
[31] = Acute toxicity in Kunming mouse assessed as effect on ALB level in liver at 100 mg/kg,ip administration measured after 14 days; assay type: organism-based; conditions: in vivo, 336 h, time 14 day
[32] = Acute toxicity in Kunming mouse assessed as effect on total bilirubin level in liver at 100 mg/kg,ip administration measured after 14 days; assay type: organism-based; conditions: in vivo, 336 h, time 14 day
[33] = Acute toxicity in Kunming mouse assessed as effect on direct bilirubin level in liver at 100 mg/kg,ip administration measured after 14 days; assay type: organism-based; conditions: in vivo, 336 h, time 14 day
[34] = Acute toxicity in Kunming mouse assessed as effect on urea level in kidney at 100 mg/kg,ip administration measured after 14 days; assay type: organism-based; conditions: in vivo, 336 h, time 14 day
[35] = Acute toxicity in Kunming mouse assessed as effect on creatinine level in kidney at 100 mg/kg,ip administration measured after 14 days; assay type: organism-based; conditions: in vivo, 336 h, time 14 day
[36] = Acute toxicity in Kunming mouse assessed as effect on uric acid level in kidney at 100 mg/kg,ip administration measured after 14 days; assay type: organism-based; conditions: in vivo, 336 h, time 14 day
[37] = Acute toxicity in Kunming mouse assessed as effect on creatine kinase level in heart at 100 mg/kg,ip administration measured after 14 days; assay type: organism-based; conditions: in vivo, 336 h, time 14 day
[38] = Acute toxicity in Kunming mouse assessed as effect on lactate dehydrogenase level in heart at 100 mg/kg,ip administration measured after 14 days; assay type: organism-based; conditions: in vivo, 336 h, time 14 day
[39] = Acute toxicity in Kunming mouse assessed as pathological change in heart at 100 mg/kg,ip administration measured after 14 days by hematoxylin and eosin staining based microscopic analysis; assay type: organism-based; conditions: in vivo, 336 h, time 14 day
[40] = Acute toxicity in Kunming mouse assessed as pathological change in spleen at 100 mg/kg,ip administration measured after 14 days by hematoxylin and eosin staining based microscopic analysis; assay type: organism-based; conditions: in vivo, 336 h, time 14 day
[41] = Acute toxicity in Kunming mouse assessed as pathological change in lung at 100 mg/kg,ip administration measured after 14 days by hematoxylin and eosin staining based microscopic analysis; assay type: organism-based; conditions: in vivo, 336 h, time 14 day
[42] = Acute toxicity in Kunming mouse assessed as pathological change in kidney at 100 mg/kg,ip administration measured after 14 days by hematoxylin and eosin staining based microscopic analysis; assay type: organism-based; conditions: in vivo, 336 h, time 14 day
[43] = tested on: HCCLM3; assay: Antiproliferative activity against human HCCLM3 cells cultured as 2D cells assessed as inhibition of cell growth at 10 to 50 uM incubated for 72 hrs by CCK-8 assay; assay type: functional, cell-based; conditions: dose 10-50 µM
[44] = tested on: SK-HEP1; assay: Antiproliferative activity against human SK-HEP1 cells cultured as 2D cells assessed as inhibition of cell growth at 10 to 50 uM incubated for 72 hrs by CCK-8 assay; assay type: functional, cell-based; conditions: dose 10-50 µM
[45] = tested on: SK-HEP1; assay: Inhibition of cell migration in human SK-HEP1 cells at 10 to 50 uM incubated for 24 hrs by transwell assay; assay type: functional, cell-based; conditions: dose 10-50 µM
[46] = tested on: HCCLM3; assay: Inhibition of cell migration in human HCCLM3 cells at 10 to 50 uM incubated for 24 hrs by transwell assay; assay type: functional, cell-based; conditions: dose 10-50 µM

## Cc1nc(-c2ccc(OCC3CCC3)cc2)sc1C(=O)O
[1]
  Activity: inactive
[2]
  Activity: inactive

## COCCOc1ccc(-c2nc(C)c(C(=O)O)s2)cc1
[1]
  Activity: inactive
[2]
  Activity: inactive
[3]
  Activity: Active
[4]
  Activity: Active
[5]
  Activity: Active
[6]
  inhibition: Active
[7]
  inhibition: Active
[8]
  inhibition: Active
[9]
  inhibition: Active
[10]
  inhibition: Active
[11]
  Activity: inactive
[12]
  Activity: inactive
[13]
  Activity: Active
[14]
  Activity: Active
[15]
  inhibition: Dose-dependent-effect
[16]
  inhibition: Dose-dependent-effect
[17]
  inhibition: inactive
[18]
  inhibition: inactive
[19]
  inhibition: Dose-dependent-effect
[20]
  inhibition: Dose-dependent-effect
[21]
  Activity: Time-dependent-effect
[22]
  Activity: Time-dependent-effect
[23]
  Activity: Time-dependent-effect
[24]
  Activity: Dose-dependent-effect
[25]
  Activity: Dose-dependent-effect
[26]
  Activity: Dose-dependent-effect
[27]
  Activity: Non-toxic
[28]
  Activity: Non-toxic
[29]
  Activity: Non-toxic
[30]
  Activity: Non-toxic
[31]
  Activity: Non-toxic
[32]
  Activity: Non-toxic
[33]
  Activity: Non-toxic
[34]
  Activity: Non-toxic
[35]
  Activity: Non-toxic
[36]
  Activity: Non-toxic
[37]
  Activity: Non-toxic
[38]
  Activity: Non-toxic
[39]
  Activity: Non-toxic
[40]
  Activity: Non-toxic
[41]
  Activity: Non-toxic
[42]
  Activity: Non-toxic

## Cc1nc(-c2ccc(OCC(C)C)cc2)sc1C(=O)O
[1]
  Activity: inactive
[2]
  Activity: inactive

## CCCCOc1ccc(-c2nc(C)c(C(=O)O)s2)cc1
[1]
  Activity: inactive
[2]
  Activity: inactive

## Cc1cc(-c2nc(C)c(C(=O)O)s2)cc(C)c1OCC1CC1
[1]
  Activity: inactive
[2]
  Activity: inactive
[3]
  Activity: Active
[4]
  Activity: Active
[5]
  Activity: Active

## Cc1nc(-c2ccc(OCC(C)C)c(C#N)c2)sc1C(=O)O
[43]
  Activity: Active
[44]
  Activity: Active
[45]
  inhibition: Active
[46]
  inhibition: Active

## Cc1nc(-c2ccc(OCC3CC3)cc2)sc1C(=O)O
[1]
  Activity: inactive
[2]
  Activity: inactive

## Cc1nc(-c2ccc(OCCCF)cc2)sc1C(=O)O
[1]
  Activity: inactive
[2]
  Activity: inactive
[3]
  Activity: Active
[4]
  Activity: Active
[5]
  Activity: Active
[6]
  inhibition: Active
[7]
  inhibition: Active
[8]
  inhibition: Active
[9]
  inhibition: Active

## Cc1nc(-c2ccc(OCC3CC3)c(Cl)c2)sc1C(=O)O
[1]
  Activity: inactive
[2]
  Activity: inactive
